What was measured:
[1] = tested on: monocytes (phagocytosis of anti-D opsonized RBCs); test: Monocyte monolayer assay (MMA), phagocytosis of anti-D opsonized RBCs; type: cell-based; settings: percent inhibition of phagocytosis of anti-D opsonized RBCs by monocytes, compound at 5 micromolar; for inhibition at 5 µM: Monocyte
Protocol: Monocyte monolayer assay. The monocyte monolayer assay (MMA) was performed as previously described (Rampersad, G. C.; Suck, G; Sakac, D; Fahim, S; Foo, A; Denomme, G. A.; Langler, R. F.; Branch, D. R. Transfusion 2005, 45, 384; Foo, A. H.; Fletcher, S. P.; Langler, R. F.; Porter, C. H.; Branch, D. R. Transfusion 2007, 47, 290; Branch, D. R.; Gallagher, M. T.; Mison, A. P.; Sy Siok Hian, A. L.; Petz, L. D. Br. J. Haematol. 1984, 56, 19; Gallagher, M. T.; Branch, D. R.; Mison, A.; Petz, L. D. Exp. Hematol. 1983, 11, 82) in the above 4 references with slight modification. Briefly, peripheral blood mononuclear cells (PBMC) containing monocytes were isolated by ficoll-paque density gradient centrifugation and incubated overnight at 37° C. under 5% CO2 atmosphere. PBMCs were then layered onto chamber slides (Labtek, Thermo Scienctific) and incubated at 37° C., 5% CO2 for 1 hr to allow the monocytes to adhere. Following an aspiration of non-adherent cells, compounds were added at various concentrations to the adhered cells and further incubated for an additional hour. The compounds were aspirated and the monocytes treated with anti-D opsonized RBCs at the aforementioned incubation conditions for an additional 2 hrs. The slides were analyzed under phase microscopy for phagocytosis. A minimum of 100 monocytes were counted per sample and the number of observed RBCs that were phagocytosed were counted and normalized to a positive control to generate a phagocytosis index. Percent inhibition of phagocytosis was calculated as the percentage of control phagocytosis (phagocytosis of opsonized RBCs with compound diluent only).

[2] = tested on: preventive mouse model of ITP (anti-platelet antibody, rat anti-mouse CD41); test: Preventive mouse model of ITP, compound given IP or IV; type: in vivo, Mice (BALB/c); settings: i.p. (40 mg/kg) or i.v. (16 mg/kg); anti-CD41 1.4 μg daily from Day 0; FIG. 1
Protocol: Mice (BALB/c) were treated with an anti-platelet antibody (rat anti-mouse CD41 using 1.4 μg constant dose) daily starting at Day 0 to induce ITP. Platelet counts at Day 2, when a nadir is reached in this model, are shown for untreated mice, mice treated with anti-CD41 only, mice treated with IVIG (1 g/kg) (positive control for ITP amelioration), and mice treated with Compound 50 i.p. (40 mg/kg) or i.v. (16 mg/kg). Treatment groups: n=5 mice per group; control: n=3. Statistical significance by one-way ANOVA with Dunnett posthoc test and is indicated: ** p<0.01; *** p<0.001.

[3] = tested on: preventive mouse model of ITP (anti-platelet antibody, rat anti-mouse CD41); test: Preventive mouse model of ITP, compound given subcutaneously; type: in vivo, Mice; settings: SC twice per day (2 sites, 2 mg/ml) starting at Day 0; anti-CD41 1.4 μg daily; FIG. 2
Protocol: Mice were treated as above with an anti-platelet antibody (rat anti-mouse CD41 using 1.4 μg constant dose) daily starting at Day 0 to induce ITP. Compound 50 was given SC twice per day (2 sites, 2 mg/ml) starting at Day 0. IVIg (1 g/kg) was given on Day 2 for comparison as this is considered the therapeutic dose of IVIg. Treatment groups: n=5 mice per group; control (untreated): n=3. Statistical significance by one-way ANOVA with Dunnett posthoc test and is indicated: ** p<0.01; *** p<0.001.

SMILES | inhibition at 5 µM [1] | also measured
Cc1cc(OCCOc2cc(C)nn2-c2ccccc2)n(-c2ccccc2)n1 [Compound 20, 1,2-Bis(3-methyl-1-phenyl-1H-pyrazol-5-yloxy)ethane] | 4 to 14% | –
Cc1cc(OCc2cc(C)nn2-c2ccccc2)n(CCN)n1 [Compound 47, 2-(3-Methyl-5-((3-methyl-1-phenyl-1H-pyrazol-5-yl)methoxy)-1H-pyrazol-1-yl)ethanamine] | 5 to 33% | –
Cc1cc(COc2cc(C)nn2C2CCCC2)n(-c2ccccc2)n1 [Compound 41, 1-Cyclopentyl-3-methyl-5-((3-methyl-1-phenyl-1H-pyrazol-5-yl)methoxy)-1H-pyrazole] | ≤ 17% | –
Cc1cc(CCc2cc(C)nn2-c2ccccc2)n(-c2ccccc2)n1 [Compound 14, 1,2-Bis(3-methyl-1-phenyl-1H-pyrazol-5-yl)ethane] | ≤ 16% | –
Cc1cc(OCC2CCCN2Cc2ccccc2)n(-c2ccccc2)n1 (stereo not shown) [Compound 53, 5-((1-Benzylpyrrolidin-2-yl)methoxy)-3-methyl-1-phenyl-1H-pyrazole] | 5 to 15% | –
Cc1cc(OCc2cc(C)nn2-c2ccccc2)n(CC2CCCCC2)n1 [Compound 37, 1-(Cyclohexylmethyl)-3-methyl-5-((3-methyl-1-phenyl-1H-pyrazol-5-yl)methoxy)-1H-pyrazole] | 33 to 45% | –
Cc1cc(COc2cc(C)nn2-c2ccc([N+](=O)[O-])cc2)n(-c2ccccc2)n1 [Compound 28, 3-Methyl-5-({[3-methyl-1-(4-nitrophenyl)-1H-pyrazol-5-yl]oxy}methyl)-1-phenyl-1H-pyrazole] | 2 to 16% | –
Cc1cc(Oc2c([N+](=O)[O-])c(C)nn2-c2ccccc2)n(-c2ccccc2)n1 [Compound 23, 3-Methyl-5-(3-methyl-1-phenyl-1H-pyrazol-5-yloxy)-4-nitro-1-phenyl-1H-pyrazole] | 12% | –
Cc1cc(OCc2cc(C)nn2-c2ccccc2)[nH]n1 [Compound 49] | – | Activity @ 5 micromolar (%) [1]: 6-26%
Cc1cc(Oc2c(N)c(C)nn2-c2ccccc2)n(-c2ccccc2)n1 [Compound 24, 3-Methyl-5-(3-methyl-1-phenyl-1H-pyrazol-5-yloxy)-1-phenyl-1H-pyrazol-4-amine] | 2% | –
Cc1cc(COc2cc(C)nn2-c2ccccc2)n(-c2ccccc2)n1 [Compound 15, 3-Methyl-5-((3-methyl-1-phenyl-1H-pyrazol-5-yl)methoxy)-1-phenyl-1H-pyrazole] | ≤ 14% | –
Cc1cc(O)n(Cc2cc(C)nn2-c2ccccc2)n1 [Compound 50, 3-methyl-1-((3-methyl-1-phenyl-1H-pyrazol-5-yl)methyl)-1H-pyrazol-5-ol] | 27 to 58% | Amelioration of ITP (platelet counts at Day 2) [2]: ameliorates ITP; Amelioration of ITP [3]: efficacious for the amelioration of ITP
Cc1cc(CNCc2cc(C)nn2-c2ccccc2)n(-c2ccccc2)n1 [Compound 18, Bis((3-methyl-1-phenyl-1H-pyrazol-5-yl)methyl)amine] | 20% | –
Cc1cc(OCc2cc(C)nn2-c2ccccc2)n(CC(=O)O)n1 [Compound 48, 2-(3-Methyl-5-((3-methyl-1-phenyl-1H-pyrazol-5-yl)methoxy)-1H-pyrazol-1-yl)acetic acid] | 4 to 10% | –
